Measured values taken from patent US5420287A, “1,2 diarylcyclopentenyl compounds for the treatment of inflammation” (G. D. Searle & Co., priority 1994, dated 1995).

Tested on: carrageenan foot edema
Assay: Rat Carrageenan Foot Pad Edema Test
Type: in vivo, Male Sprague-Dawley rats
Conditions: @ 10 mg/kg body weight, oral, 3 h after carrageenan injection, read-out: RAT PAW EDEMA % Inhibition
Description: One hour later a subplantar injection of 0.1 mL of 1% solution of carrageenan/sterile 0.9% saline was administered and the volume of the injected foot was measured with a displacement plethysmometer connected to a pressure transducer with a digital indicator.

## CS(=O)(=O)c1ccc(C2=C(c3ccc(F)cc3)CCC2)cc1 [Example 1, 1-[2-(4-fluorophenyl)cyclopenten-1-yl]-4-(methylsulfonyl)benzene]
  inhibition in vivo at 10 mg/kg: 33%
